Where a name gives a salt, the structure may show the parent alone.
| Compound | melting point |
| --- | --- |
| COc1ccc(CCN(C)Cc2ccc(NC(=O)/C=C/c3cccc(-c4ccc(C)cc4)c3)cc2)cc1OC.Cl | 214 to 217 °C |
| Cc1ccc(-c2ccc3c(c2)C=C(C(=O)Nc2ccc(C[N+]4(C)CCCCC4)cc2)CCO3)cc1 (as salt: chloride) [Compound 97, 1—(N-(7—(4-methylphenyl)-2,3-dihydro-1-benzoxepin-4-carbonyl)-4-aminobenzyl)-1-methylpiperidinium chloride] | 231 to 232 °C |
| Cc1ccc(-c2cccc(/C=C/C(=O)Nc3ccc(C[N+]4(C)CCCCC4)cc3)c2)cc1 (as salt: iodide) [Compound 72, (E)-1-methyl-1-[4—(3—(4-methylphenyl)cinnamamido)benzyl]-piperidinium iodide] | 176 to 178 °C |
| Cc1ccc(-c2ccc3c(c2)C=C(C(=O)Nc2ccc(C[N+]4(C)CCCCC4)cc2)CCC3)cc1 (as salt: iodide) [Compound 92, 1—(N-(2—(4-methylphenyl)-6,7-dihydro-5H-benzocycloheptene-8-carbonyl)-4-aminobenzyl)-1-methylpiperidinium iodide] | 220 to 221 °C (dec.) |
| Cc1ccc(-c2ccc3c(c2)C=C(C(=O)Nc2ccc(C[N+]4(C)CCCCC4)cc2)CCO3)cc1 (as salt: iodide) [Compound 96, 1—(N-(7—(4-methylphenyl)-2,3-dihydro-1-benzoxepin-4-carbonyl)-4-aminobenzyl)-1-methylpiperidinium iodide] | 227 to 228 °C (dec.) |
| O=C(Nc1ccc(CN2CCCCC2)cc1)C1=Cc2cc(C3CCCCC3)ccc2CC1 [Compound 1, 7-cyclohexyl-N-[4—(piperidinomethyl)-phenyl]-3,4-dihydronaphthalene-2-carboxamide] | 180 to 181 °C |
| O=C(Nc1ccc(CN2CCCCC2)cc1)C1=Cc2cc(-c3ccccc3)ccc2CC1 [Compound 4, 7-phenyl-N-[4—(piperidinomethyl)phenyl]-3,4-dihydronaphthalene-2-carboxamide] | 163 to 164 °C |
| CN(C)Cc1ccc(NC(=O)C2=Cc3cc(-c4ccccc4)ccc3CC2)cc1 [Compound 6, N-[4—(dimethylaminomethyl)-phenyl]-7-phenyl-3,4-dihydro-naphthalene-2-carboxamide] | 182 to 184 °C |
| O=C(Nc1ccc(CCN2CCCCC2)cc1)C1=Cc2cc(-c3ccccc3)ccc2CC1 [Compound 9, 7-phenyl-N-[4—(2-piperidinoethyl)phenyl]-3,4-dihydro-naphthalene-2-carboxamide] | 157 to 159 °C |
| O=C(Nc1ccc(CN2CCCCC2)cc1)C1=Cc2cc(-c3ccc(F)cc3)ccc2CC1 [Compound 15, 7—(4-fluorophenyl)-N-[4—(piperidinomethyl)phenyl]-3,4-dihydronaphthalene-2-carboxamide] | 175 to 176 °C |
| Cc1ccc(-c2ccc3c(c2)C=C(C(=O)Nc2ccc(CN4CCC(Cc5ccccc5)CC4)cc2)CC3)cc1 [Compound 35, N-[4—(4-benzyl-piperidinomethyl)phenyl]-7—(4-methylphenyl)-3,4-dihydronaphthalene-2-carboxamide] | 199 to 201 °C |
| COc1ccccc1N1CCN(Cc2ccc(NC(=O)C3=Cc4cc(-c5ccc(C)cc5)ccc4CC3)cc2)CC1 [Compound 41, N-[4-[1—(2-methoxyphenyl)-4-piperazinylmethyl]phenyl]-7—(4-methylphenyl)-3,4-dihydronaphthalene-2-carboxamide] | 202 to 205 °C |
| Cc1ccc(-c2ccc3c(c2)C=C(C(=O)Nc2ccc(CN4CCN(c5ncccn5)CC4)cc2)CC3)cc1 [Compound 42, 7—(4-methylphenyl)-N-[4-[1—(2-pyrimidyl)-4-piperazinylmethyl]-phenyl]-3,4-dihydronaphthalene-2-carboxamide] | 203 to 204 °C |
| COc1cc(CN2CCN(Cc3ccc(NC(=O)C4=Cc5cc(-c6ccc(C)cc6)ccc5CC4)cc3)CC2)cc(OC)c1OC [Compound 45, N-[4-[1—(3,4,5-trimethoxybenzyl)-4-piperazinylmethyl]-phenyl]-7—(4-methylphenyl)-3,4-dihydronaphthalene-2-carboxamide] | 143 to 144 °C |
| Cc1ccc(-c2ccc3c(c2)C=C(C(=O)Nc2ccc(CN4CCN(CCO)CC4)cc2)CC3)cc1 [Compound 46, N-[4-[1—(2-hydroxyethyl)-4-piperazinylmethyl]phenyl]-7—(4-methylphenyl)-3,4-dihydronaphthalene-2-carboxamide] | 185 to 187 °C |
| Cc1ccc(-c2ccc3c(c2)C=C(C(=O)Nc2ccc(CNc4cccnc4)cc2)CC3)cc1 [Compound 47, 7—(4-methylphenyl)-N-[4-[N-(3-pyridyl)aminomethyl]phenyl]-3,4-dihydronaphthalene-2-carboxamide] | 212 to 214 °C |
| Cc1ccc(-c2ccc3c(c2)C=C(C(=O)Nc2ccc(CNC(CO)CO)cc2)CC3)cc1 [Compound 48, N-[4-[(1,3-dihydroxy-2-propyl)aminomethyl]phenyl]-7—(4-methylphenyl)-3,4-dihydronaphthalene-2-carboxamide] | 189 to 193 °C |

Results, then the compound that gave them:

| melting point | Compound |
| --- | --- |
| 162 to 163 °C | CN(C)c1ccc(-c2ccc3c(c2)C=C(C(=O)Nc2ccc(CP4(=O)CCCCC4)cc2)CCO3)cc1.Cl |
| 162 to 163 °C | Cc1ccc(-c2ccc3c(c2)C=C(C(=O)Nc2ccc(C(=O)C4CCCCN4C)cc2)CCO3)cc1 (centres unmarked) |
| 232 to 237 °C (dec.) | Cc1ccc(-c2ccc3c(c2)C=C(C(=O)Nc2ccc(C[N+](C)(C)C4CCOCC4)cc2)CCO3)cc1.[Cl-] |
| 200 to 204 °C | CCOc1ccc(-c2ccc3c(c2)C=C(C(=O)Nc2ccc(C[N+](C)(C)C4CCOCC4)cc2)CCO3)cc1 (as salt: chloride) [Compound 250, N-(4-(((7-(4-ethoxyphenyl)-2,3-dihydro-1-benzoxepin-4-yl)carbonyl)amino)benzyl)-N,N-dimethyl-N-(4-tetrahydropyranyl)ammonium chloride] |
| 202 to 204 °C | Cc1ccc(-c2ccc3c(c2)C=C(C(=O)Nc2ccc(C[N+]4(C)CCCCC4)cc2)CC3)cc1 (as salt: iodide) [Compound 16, 1-methyl-1-[4-[7—(4-methylphenyl)-3,4-dihydronaphthalene-2-carboxamido]benzyl]piperidinium iodide] |
| 196 to 197 °C | Cc1ccc(-c2ccc3c(c2)C=C(C(=O)Nc2ccc(C[N+]4(C)CCCCC4)cc2)CCS3)cc1 (as salt: iodide) [Compound 94, 1—(N-(7—(4-methylphenyl)-2,3-dihydro-1-benzo-thiepine-4-carbonyl)-4-aminobenzyl)-1-methyl-piperidinium iodide] |
| 186 to 187 °C | O=C(Nc1ccc(CN2CCOCC2)cc1)C1=Cc2cc(-c3ccccc3)ccc2CC1 [Compound 8, N-[4—(morpholinomethyl)-phenyl]-7-phenyl-3,4-dihydronaphthalene-2-carboxamide] |
| 187 to 189 °C | Cc1ccc(-c2ccc3c(c2)C=C(C(=O)Nc2ccc(CN4CCCCC4)cc2)CC3)cc1 [Compound 14, 7—(4-methylphenyl)-N-[4—(piperidinomethyl)phenyl]-3,4-dihydronaphthalene-2-carboxamide] |
| 223 to 224 °C | Cc1ccc(-c2ccc3c(c2)C=C(C(=O)Nc2ccc(CN4CCC(O)CC4)cc2)CC3)cc1 [Compound 49, N-[4—(4-hydroxypiperidinomethyl)phenyl]-7—(4-methylphenyl)-3,4-dihydronaphthalene-2-carboxamide] |

— patent publication US6413947B1, “Anilide derivative, production and use thereof” (Takeda Chemical Industries, Ltd., priority 1997, dated 2002)
